According to paper PMC9606102, “[^89Zr]Zr-PSMA-617 PET/CT in biochemical recurrence of prostate cancer: first clinical experience from a pilot study including biodistribution and dose estimates” (European Journal of Nuclear Medicine and Molecular Imaging, 2022):

Key:
prostate cancer lesions = assay: [^68Ga]Ga-PSMA-11 PET/CT findings in the same patients; type: in vivo, human (patients); details: for SUVmax of undetermined finding: 1 h p.i.
Description: The time interval between both, [^89Zr]Zr-PSMA-617 and [^68Ga]Ga-PSMA-11 PET/CT, was 31 ± 18 days (range 5–49 days), with no treatment performed in between. Prostate-specific antigen (PSA) serum level at time of imaging ranged from 0.43 to 1.92 ng/ml. All patients were initially treated with radical prostatectomy (RP). Initial Gleason score ranged from 7a to 9. Four patients underwent salvage treatments such as androgen-deprivation therapy (ADT), lymphadenectomy (LA) or radiation therapy (RT). Detailed patient characteristics including age, Gleason score, primary therapy, salvage therapies, time from initial diagnosis (ID) of prostate cancer, PSA and PSA doubling time (DT) are presented in Table 1. [^89Zr]Zr-PSMA-617 PET/CT imaging was performed on a compassionate use basis under the German Pharmaceutical Act §13 (2b). The medical indication for the examination and the labeling of the tracer were under the direct responsibility of the applying physician. Patients gave their written consent after being thoroughly informed about the general risks of both radiation exposure and application of a novel PET tracer including possible adverse effects of, e.g., therapeutic PSMA tracers. Furthermore, all patients agreed to the publication of the resulting data in accordance with the Declaration of Helsinki.

[1] = design: method as in PMID 34326129; details: cited from earlier work

Molecule	Findings on [^68Ga]Ga-PSMA-11 PET/CT (prostate cancer lesions; Pt. no 1, PSA 1.92 ng/ml)	Findings on [^68Ga]Ga-PSMA-11 PET/CT (prostate cancer lesions; Pt. no 2, PSA 1.75 ng/ml)	Findings on [^68Ga]Ga-PSMA-11 PET/CT (prostate cancer lesions; Pt. no 3, PSA 0.66 ng/ml)	Findings on [^68Ga]Ga-PSMA-11 PET/CT (prostate cancer lesions; Pt. no 4, PSA 1.77 ng/ml)	Findings on [^68Ga]Ga-PSMA-11 PET/CT (prostate cancer lesions; Pt. no 5, PSA 0.63 ng/ml)	Findings on [^68Ga]Ga-PSMA-11 PET/CT (prostate cancer lesions; Pt. no 6, PSA 0.43 ng/ml)	Findings on [^68Ga]Ga-PSMA-11 PET/CT (prostate cancer lesions; Pt. no 7, PSA 0.68 ng/ml)	SUVmax of undetermined finding (prostate cancer lesions; patient no. 2, pelvic tracer uptake, considered as unspecific uptake)	SUVmax of undetermined finding (prostate cancer lesions; patient no. 4, faint uptake in peritoneal lesion)	Effective dose [1] [mSv/MBq]
O=C([O-])CN(CCN(CC(=O)[O-])Cc1cc(CCC(=O)NCCCCCC(=O)NCCCC[C@H](NC(=O)N[C@@H](CCC(=O)O)C(=O)O)C(=O)O)ccc1[O-])Cc1cc(CCC(=O)O)ccc1[O-].[68Ga+3].[OH3+] [[^68Ga]Ga-PSMA-11]	No suspicious findings	1 × LNM + undetermined finding (suspicion of right iliac LNM)	No suspicious findings	Undetermined finding (suspicion of peritoneal metastasis)	No suspicious findings	Undetermined finding (suspicion of local recurrence in seminal vesicle bed)	No suspicious findings	4.47	2.06	–
[^89Zr]Zr-PSMA-DFO	–	–	–	–	–	–	–	–	–	0.15 ± 0.04
